In PubChem BioAssay (NCI):
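Interpolation was linear, between the two tested concentrations surrounding the appropriate level; five concentrations were tested over 48 hours in 96-well plates. Abbreviation: GI50, concentration required for 50% inhibition of growth. TGI is the concentration that stops growth completely.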

Columns and labels:
Experiment in all cases: NCI-60 cell line screen, 48 h
MALME-3M melanoma = test system: MALME-3M melanoma
OVCAR-8 ovarian = test system: OVCAR-8 ovarian
U251 CNS = test system: U251 CNS
OVCAR-4 ovarian = test system: OVCAR-4 ovarian
KM12 colon = test system: KM12 colon
COLO 205 colon = test system: COLO 205 colon
SF-295 CNS = test system: SF-295 CNS
SK-MEL-28 melanoma = test system: SK-MEL-28 melanoma
SW-620 colon = test system: SW-620 colon
T-47D breast = test system: T-47D breast

SMILES	TGI (MALME-3M melanoma)	TGI (OVCAR-8 ovarian)	TGI (U251 CNS)	TGI (OVCAR-4 ovarian)	TGI (KM12 colon)	TGI (COLO 205 colon)	TGI (SF-295 CNS)	TGI (SK-MEL-28 melanoma)	TGI (SW-620 colon)	TGI (T-47D breast)	GI50 (OVCAR-8 ovarian)	GI50 (U251 CNS)	GI50 (OVCAR-4 ovarian)	GI50 (T-47D breast)	GI50 (KM12 colon)	GI50 (COLO 205 colon)	GI50 (SW-620 colon)	GI50 (MALME-3M melanoma)	GI50 (SF-295 CNS)	GI50 (SK-MEL-28 melanoma)
c1ccc2c(c1)SP1Sc3ccccc3P21 (configuration not stated)	> 100 µM	> 100 µM	> 100 µM	> 100 µM	> 100 µM	> 100 µM	> 100 µM	> 100 µM	> 100 µM	–	–	–	–	–	–	–	–	–	–	–
CC(=O)OC1CC(OC2C(O)CC(OC3C(O)CC(OC4CCC5(C)C(CCC6C5CCC5(C)C(C7=CC(=O)OC7)CCC65O)C4)OC3C)OC2C)OC(C)C1OC1OC(CO)C(O)C(O)C1O (configuration not stated)	0.112 µM	0.139 µM	0.137 µM	0.162 µM	0.31 µM	0.168 µM	0.142 µM	0.592 µM	0.148 µM	0.344 µM	–	–	–	–	–	–	–	–	–	–
O=C1C(c2c(O)[nH]c3ccc(Cl)cc23)=Nc2ccccc21	> 58.4 µM	21.9 µM	17.6 µM	5.42 µM	> 100 µM	> 100 µM	> 78.8 µM	> 100 µM	> 100 µM	> 100 µM	–	–	–	–	–	–	–	–	–	–
COCCNCc1ccc(-c2cc3nccc(Oc4ccc(NC(=O)C5(C(=O)Nc6ccc(F)cc6)CC5)cc4F)c3s2)nc1	–	5.13 µM	3.79 µM	4.79 µM	2.95 µM	3.68 µM	–	–	3.27 µM	6.29 µM	2.11 µM	1.89 µM	1.67 µM	2.01 µM	0.0411 µM	1.55 µM	1.26 µM	–	–	–
COC(=O)c1sc2c(c1C(=O)OC)C(=NC(C)(C)C)SC2=NC(C)(C)C	37.8 µM	42.3 µM	32.3 µM	44 µM	33.8 µM	34 µM	36.6 µM	32 µM	35.4 µM	31.4 µM	–	–	–	–	–	–	–	–	–	–
COc1cc(NCCC(=O)O)c2ncccc2c1	> 100 µM	> 100 µM	> 100 µM	> 100 µM	–	–	> 100 µM	> 100 µM	> 100 µM	> 100 µM	–	–	–	–	–	–	–	–	–	–
Cc1ccc(C(C)C)c(OCC(=O)N/N=C/c2c[nH]c3ccc(Br)cc23)c1	21.8 µM	15 µM	11.1 µM	13.6 µM	6.3 µM	3.55 µM	10.7 µM	21.8 µM	18.6 µM	24.8 µM	–	–	–	–	–	–	–	–	–	–
Clc1cc(OCc2nn3c(Cc4ccccc4)nnc3s2)c(Cl)cc1OCc1nn2c(Cc3ccccc3)nnc2s1	> 100 µM	> 100 µM	> 100 µM	> 100 µM	> 100 µM	> 100 µM	> 100 µM	> 100 µM	> 100 µM	> 100 µM	–	–	–	–	–	–	–	–	–	–
CN(C)c1cccc(OC(=O)NCCCl)c1	> 100 µM	> 100 µM	> 100 µM	> 100 µM	> 100 µM	> 100 µM	> 100 µM	> 100 µM	> 100 µM	–	–	–	–	–	–	–	–	> 100 µM	–	–
O=C(Sc1n[nH]c(=O)[nH]c1=O)c1cccc2nc3ccccc3nc12	24.8 µM	> 100 µM	> 100 µM	> 100 µM	> 100 µM	5.76 µM	> 100 µM	90.9 µM	> 100 µM	> 100 µM	–	–	–	–	–	–	–	–	–	–
Cc1cccc2c1Sc1ccccc1C2NC(=O)CN(C)C (configuration not stated)	–	> 100 µM	> 100 µM	> 100 µM	–	> 100 µM	–	> 100 µM	> 100 µM	–	–	–	–	–	–	–	–	–	–	–
Nc1ccc(Cn2ccc3c4c(N)nc(N)nc4ccc32)cc1	7.04 µM	22 µM	5.02 µM	4.75 µM	12.2 µM	2.72 µM	2.15 µM	5.32 µM	2.27 µM	6.18 µM	–	–	–	–	–	–	–	–	–	–
Cc1ccc(Nc2nc(=O)c3c([nH]c4ccccc43)s2)cc1	26.8 µM	28.7 µM	25.5 µM	55.4 µM	16.2 µM	24.7 µM	24.3 µM	> 100 µM	24.3 µM	43.7 µM	–	–	–	–	–	–	–	–	–	–
c1ccc2c(c1)SCCc1cn[nH]c1-2	> 100 µM	> 100 µM	> 100 µM	> 100 µM	> 100 µM	> 100 µM	> 100 µM	> 100 µM	> 100 µM	–	–	–	–	–	–	–	–	–	–	–
CO/C=C1\OC(=O)C=C1OC	> 100 µM	> 100 µM	> 31.6 µM	> 100 µM	> 100 µM	> 100 µM	> 100 µM	> 100 µM	> 100 µM	–	–	–	–	–	–	–	–	–	–	–
NNC(=O)c1cc([N+](=O)[O-])ccc1NC(=O)C12CC3CC(CC(C3)C1)C2	56.1 µM	> 100 µM	37.7 µM	23 µM	> 100 µM	64.2 µM	63 µM	–	> 100 µM	72.2 µM	–	–	–	–	–	–	–	–	–	–
c1csc(-c2ccc(CNc3c4ccccc4nc4ccccc34)cc2)c1	–	–	–	3.07 µM	–	–	2.67 µM	3.28 µM	–	55.6 µM	–	–	1.53 µM	13.6 µM	–	–	–	–	1.31 µM	1.69 µM
